Values of other authors in patent publication US20250170284A1, “Hydroxamic Acid Macrocyclic Agents With Pendant Chelating Moieties And Complexes Thereof” (LUMIPHORE, INC., priority 2022, published 2025).

Conditions: complex formation of the ligand with thorium(IV)

diethylenetriamine pentaacetic acid [DTPA]
Log K1: 30.34
